Where “and” joins values, the source holds several entries; their conditions need not be identical. Equal entries are not always repeated. Where two headings read alike, the source gives them in different places.
How the values were obtained:
[1] = system: influenza B polymerase; test: Fluorescence anisotropy/polarization protein-RNA binding; parameters: species or system influenza B/Memphis/13/03; conditions: for dissociation constant, polymerase + RNA (in words): each RNA separately
Protocol: Fluorescence spectroscopy was used to quantify protein–RNA interactions, employing either a plate reader or cuvette format. Using the cuvette, protein was successively added to FAM-Ex-5-labelled RNA (if not indicated otherwise) in binding buffer (50 mM HEPES/NaOH, 0.15 M NaCl, 10% (v/v) glycerol, 2 mM Tris(2-carboxyethyl)phosphine (TCEP), pH 7.4) at the concentrations indicated. After attaining equilibrium, total fluorescence intensity and fluorescence anisotropy were measured at T = 24°C with a fluorescence spectrometer (Photon Technology International) equipped with polarizers with excitation and emission wavelengths set to 495 and 515 nm, respectively. Total fluorescence intensity was corrected for the volume change due to addition of protein and the observed fluorescence anisotropy corrected for the change in fluorescence intensity according to Equation (1) ([17]): (1) where fb represents the fractional concentration of bound RNA, r the observed anisotropy, rf and rb the anisotropy of free and bound RNA, and If and Ib the fluorescence intensity of free and bound RNA, respectively. Using KaleidaGraph (Synergy Software), dissociation constants were derived by fitting the binding isotherms to a 1:1 binding model of RNA and protein according to Equation (2) (2) where fb represents the fractional concentration of bound RNA, L the total concentration of labelled RNA, P the concentration of protein and KD the dissociation constant.

[2] = target: influenza B polymerase initiating RNA synthesis at the cRNA promoter (cPol) (Influenza B virus, UniProt Q5V8Y6); test: biochemical; format: biochemical, influenza B/Memphis/13/03
[3] = target: T1, influenza B polymerase initiating RNA synthesis at the vRNA promoter (vPol) (Influenza B virus, UniProt Q5V8X3+Q5V8Y6); conditions: read-out: KM of primer, vPol, 0.5 mM NTPs, 0.15 μM template v3΄ 1–18, 0.25 μM polymerase, T = 24°C
[4] = target: Cy3-labelled v3΄ nt 1–18; test: FRET assay of RNA-RNA interaction with v3΄ nt 1–18; format: binding; conditions: FAM-labelled 5΄ RNA, T = 25°C
Protocol: (§1) RNA–RNA interactions were quantified by a simple FRET-assay. Briefly, ∼0.01 μM short 5΄ RNAs labelled at their 3΄ ends by FAM-Ex-5 were incubated at T = 25°C in 384 well plates (FIA plate black, 128.0/85 mm, medium binding; Greiner Bio-One GmbH, Austria) in binding buffer (50 mM HEPES/NaOH, 0.15 M NaCl, 10% (v/v) glycerol, 2 mM Tris(2-carboxyethyl)phosphine (TCEP), pH 7.4) with 3΄ RNAs labelled at their 5΄ end by Cy3 at the concentrations indicated. After attaining equilibrium (∼0.5 h), the FAM's fluorescence intensity was recorded as averaged technical triplicates (excitation / emission = 485/520 nm; 10 nm band width; CLARIOstar, BMG Labtech, Germany). The decreasing fluorescence intensity with increasing Cy3-labelled 3΄ RNA is plotted relative to its initial value as mean values of at least duplicate experiments with the standard deviation indicated. Mean values were then analysed according to Equation (2) (with P equaling the concentration of Cy3-labelled 3΄ RNA; curve fitting yielded L = 0.007 μM and 0.004 μM for FAM-Ex-5-labelled c5΄ and v5΄ nts 1–18, respectively), yielding the corresponding dissociation constants and error of the fitting routine stated. 0.2 μM FAM-Ex-5-labelled v5΄ nt 1–10 were used to study its weak interaction with either Cy3-labelled v3΄ nt 1–9 or v3΄ nt 1–18.

[5] = target: Cy3-labelled c3΄ RNA (18-mer); test: FRET assay of RNA-RNA interaction with c3΄ RNA; format: binding; conditions: FAM-labelled 5΄ RNA, T = 25°C
Protocol: as §1

[6] = target: influenza B polymerase, vPol (c5' hook) (Influenza B virus, UniProt Q5V8Y6); test: biochemical; parameters: species or system influenza B/Memphis/13/03
[7] = target: T1, influenza B polymerase initiating RNA synthesis at the vRNA promoter (vPol); test: biochemical; conditions: IC50 (mM)
[8] = system: influenza polymerase; parameters: method as in PMID 8585725; conditions: in vitro and cell culture experiments; cited from earlier work
[9] = 0.025 mM NTPs, capped RNA primed, T ∼ 21°C, t = 176 or 100 min, read-out: IC50 (mM), cPol
[10] = 0.25 mM NTPs, capped RNA primed, T ∼ 21°C, t = 15 or 10 min, read-out: IC50 (mM), cPol
[11] = 0.025 mM NTPs, capped RNA primed, T ∼ 21°C, t = 5 min, not duplicate, read-out: IC50 (mM), vPol (c5' hook)
[12] = 0.025 mM NTPs, capped RNA primed, T ∼ 21°C, t = 5 min
[13] = 0.25 mM NTPs, capped RNA primed, T ∼ 21°C, t = 5 min

With “5΄-UAUACCUCUGCUUCUGCU-3΄ (chemistry not given here) [v3', genomic vRNA 3΄ end, 18 nucleotides]” the “dissociation constant, polymerase + RNA (in words)” value (from here on “dissociation constant”) [1] was “low nanomolar range”.
Compound 5΄-m^7GpppAAUCUAUAAUAG-3΄ [capped RNA] has a Km ([2]; 0.5 mM NTPs, 0.15 μM template c3΄ 1–18, 0.25 μM polymerase, T = 24°C, read-out: KM (capped RNA), cPol) of 0.12 ± 0.03 µM and a Km [3] of 0.027 ± 0.01 µM.
Compound 5΄-pAGUAGUAACAAGAG-3΄ [non-capped RNA] has a Km [3] of 1.1 ± 0.2 µM and a Km ([3]; listed as v5′ 1-14) of ~1 µM.
In the case of “5′-UACCCUCUUGUUACUACU-3′ (chemistry not given here) [c3', anti-genomic cRNA 3΄ end, 18 nucleotides]”, the “dissociation constant” value [1] is reported as “low nanomolar range”.
In the case of 5′-pAGCAGAAGCAGAGGUAUA-3′ [c5'], the “dissociation constant” value [1] is reported as “low nanomolar range”, the Kd ([1]; fluorescently labelled RNA, binding buffer pH 7.4, read-out: KD, polymerase + promoter RNA) is reported as < 0.01 µM and the Kd [4] is reported as 30 pM. The Kd ([4]; listed as c5΄) was ~30 pM, the Kd [5] was 0.0016 ± 0.0003 µM and the Kd ([5]; listed as c5΄) was ~0.0016 µM.
Nc1ncnc2c1ncn2[C@@H]1O[C@H](COP(=O)(O)OP(=O)(O)OP(=O)(O)O)[C@@H](O)[C@H]1F [2'F-2'dATP] showed an IC50 [2, 9] of 0.7 mM, an IC50 [2, 10] of 0.38 mM and an IC50 [6, 11] of 0.03 mM. It also gave an IC50 [7, 12] of 0.03 mM and an IC50 [7, 13] of 0.3 mM.
For Nc1ccn([C@@H]2O[C@H](COP(=O)(O)OP(=O)(O)OP(=O)(O)O)[C@@H](O)[C@H]2F)c(=O)n1 [2'F-2'dCTP], the IC50 ([2]; IC50 (mM), cPol) was 1.5 mM and 2.1 mM, the IC50 [6] was 0.1 mM and the IC50 [7] was 0.21 mM and 1.4 mM.
Nc1nc2c(ncn2[C@@H]2O[C@H](COP(=O)(O)OP(=O)(O)OP(=O)(O)O)[C@@H](O)[C@H]2F)c(=O)[nH]1 [2'F-2'dGTP] gave an IC50 [2, 9] of 0.28 mM, an IC50 [2, 10] of 0.43 mM and an IC50 [6, 11] of 0.01 mM. The “mode of inhibition of influenza polymerase with respect to GTP” value [8] was “reversibly and competitively”, the IC50 [7, 12] was 0.02 mM and the IC50 [7, 13] was 0.2 mM.
For O=c1ccn([C@@H]2O[C@H](COP(=O)(O)OP(=O)(O)OP(=O)(O)O)[C@@H](O)[C@H]2F)c(=O)[nH]1 [2'F-2'dUTP], the IC50 ([2]; IC50 (mM), cPol) was 1.1 mM and 1.8 mM, the IC50 [6] was 0.3 mM and the IC50 [7] was 0.45 mM and 3.1 mM.

Reference: paper PMC5399792 (Nucleic Acids Research, 2017)
